Laboratory results published in publication PMC8693655, “Functional Characterization of BrF3'H, Which Determines the Typical Flavonoid Profile of Purple Chinese Cabbage” (Frontiers in Plant Science, 2021).
Where two headings read alike, the source gives them in different places. Values belong to the compound of their own block, whether it stands above or below them.

Molecular target: T1, BrF3′H (BrF3′H-8267) (Brassica rapa, UniProt M4CYL5)
T1 construct: full-length ORF, 511 residues, C-terminal V5 and 6xHis tags (pYES-DEST52); yeast WAT11 microsomes with Arabidopsis reductase ATR1 as redox partner
T1 sequence (M4CYL5 entry or part of it): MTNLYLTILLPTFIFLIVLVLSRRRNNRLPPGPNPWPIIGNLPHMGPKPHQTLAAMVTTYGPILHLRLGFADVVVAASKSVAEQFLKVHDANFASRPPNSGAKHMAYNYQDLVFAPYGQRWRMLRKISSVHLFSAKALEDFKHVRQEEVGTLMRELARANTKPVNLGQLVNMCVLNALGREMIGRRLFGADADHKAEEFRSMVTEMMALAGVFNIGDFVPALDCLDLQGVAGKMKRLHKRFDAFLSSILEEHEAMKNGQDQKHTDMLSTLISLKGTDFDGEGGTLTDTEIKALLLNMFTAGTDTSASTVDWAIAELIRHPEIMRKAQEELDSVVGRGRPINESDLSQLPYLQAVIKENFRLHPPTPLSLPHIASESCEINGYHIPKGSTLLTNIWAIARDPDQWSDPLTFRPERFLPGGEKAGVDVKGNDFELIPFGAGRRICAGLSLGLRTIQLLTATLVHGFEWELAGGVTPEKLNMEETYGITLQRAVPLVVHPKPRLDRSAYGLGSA
Assay: HPLC of […]'-hydroxylation by yeast microsomes
Assay type: biochemical
Settings: 1 mM NADPH, 100 mM Tris-Cl pH 7.5, 30°C, 20 min, 10 μg microsomal protein, Arabidopsis ATR1 reductase

Km (read-out: Substrates / Nar): 1720 ± 152 µM
Compound: O=C1CC(c2ccc(O)cc2)Oc2cc(O)cc(O)c21 (racemic) [Nar, naringenin]

Km (read-out: Substrates / DHK): 3600 µM
Compound: O=C1c2c(O)cc(O)cc2OC(c2ccc(O)cc2)C1O (racemic) [DHK, dihydrokaempferol]

Km (read-out: Substrates / K): 942 ± 65 µM
Compound: O=c1c(O)c(-c2ccc(O)cc2)oc2cc(O)cc(O)c12 [K, kaempferol]
